Patent US7311933B2, “Packaging material for inhibiting microbial growth” (Eastman Kodak Company, priority 2004, dated 2007)

Assay type: physicochemical
Text: Desferrioxamine B is a commercially available iron chelating drug, desferal®. […] (1980). […] 89, p.

Row | selectivity: difference between the log stability constants | SMILES
1 | 26.8 | O=C(NCCCCN(CCCNC(=O)c1cc(S(=O)(=O)O)cc(O)c1O)C(=O)c1cc(S(=O)(=O)O)cc(O)c1O)c1cc(S(=O)(=O)O)cc(O)c1O [3,4-LICAMS]
2 | 17.2 | O=C(O)CN(CCN(CC(=O)O)CC(=O)O)CCN(CC(=O)O)CC(=O)O [DTPA, diethylenetriaminepentaacetic acid]
